Experimental data published in ChEMBL document CHEMBL4665643 (Bioorg Med Chem Lett, 2019).

What was measured:
[1] = biological target: Tyrosine-protein kinase JAK1 (Homo sapiens, UniProt P23458); assay: biochemical
Description: Inhibition of recombinant human JAK1 (854 to 1154 residues) expressed in insect cells using Y1-B as substrate incubated for 30 mins by microfluidic mobility shift assay

[2] = biological target: T1, Tyrosine-protein kinase JAK2 (Homo sapiens, UniProt O60674); assay: Inhibition of recombinant human GST-tagged JAK2 (809 to 1153 residues) expressed in baculovirus expression system using Tyr 06 as substrate at 0.1 uM incubated for 60 mins by Z'-lyte assay relative to control
T1 sequence (O60674 whole entry, the tested form may be a part): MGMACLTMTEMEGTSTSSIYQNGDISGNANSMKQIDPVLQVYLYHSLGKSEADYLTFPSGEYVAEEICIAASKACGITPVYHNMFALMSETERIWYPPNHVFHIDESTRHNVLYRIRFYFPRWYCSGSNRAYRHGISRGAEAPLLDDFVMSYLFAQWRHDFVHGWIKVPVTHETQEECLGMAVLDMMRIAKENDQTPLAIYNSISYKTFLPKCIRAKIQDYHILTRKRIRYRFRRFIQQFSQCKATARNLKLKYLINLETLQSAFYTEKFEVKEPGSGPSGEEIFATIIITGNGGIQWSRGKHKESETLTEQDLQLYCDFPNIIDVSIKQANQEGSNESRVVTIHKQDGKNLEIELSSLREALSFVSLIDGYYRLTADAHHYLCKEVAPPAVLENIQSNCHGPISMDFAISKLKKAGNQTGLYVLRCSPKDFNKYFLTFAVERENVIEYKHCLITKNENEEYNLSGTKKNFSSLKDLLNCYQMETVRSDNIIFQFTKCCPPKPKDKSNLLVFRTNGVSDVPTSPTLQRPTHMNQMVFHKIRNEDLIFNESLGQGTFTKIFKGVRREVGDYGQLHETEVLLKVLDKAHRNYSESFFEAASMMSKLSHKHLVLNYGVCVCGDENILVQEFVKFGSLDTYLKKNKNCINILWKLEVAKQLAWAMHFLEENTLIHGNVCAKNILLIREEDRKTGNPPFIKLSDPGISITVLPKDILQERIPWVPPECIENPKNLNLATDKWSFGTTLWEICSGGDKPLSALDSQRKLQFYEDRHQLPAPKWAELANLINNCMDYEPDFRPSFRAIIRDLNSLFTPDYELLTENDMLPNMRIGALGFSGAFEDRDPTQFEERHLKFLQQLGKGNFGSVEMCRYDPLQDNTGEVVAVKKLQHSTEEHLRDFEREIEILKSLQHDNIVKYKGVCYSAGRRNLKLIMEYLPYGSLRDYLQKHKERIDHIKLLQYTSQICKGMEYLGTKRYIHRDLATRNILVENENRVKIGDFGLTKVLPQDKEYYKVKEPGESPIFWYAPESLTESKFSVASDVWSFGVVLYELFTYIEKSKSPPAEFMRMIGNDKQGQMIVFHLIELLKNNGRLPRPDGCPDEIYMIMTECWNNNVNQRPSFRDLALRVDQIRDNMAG

[3] = biological target: T1, Tyrosine-protein kinase JAK2
Description: Inhibition of recombinant human JAK2 (812 to 1132 residues) expressed in insect cells using Y1-B as substrate incubated for 30 mins by microfluidic mobility shift assay

[4] = biological target: Serine/threonine-protein kinase pim-2 (Homo sapiens) (UniProt Q9P1W9); assay: Inhibition of recombinant human GST-tagged full length PIM2 expressed in baculovirus expression system using Ser/Thr 07 as substrate at 0.1 uM incubated for 60 mins by Z'-lyte assay relative to control
Chain of Serine/threonine-protein kinase pim-2 (Homo sapiens) (Q9P1W9 whole entry, looked up, the tested form may be a part): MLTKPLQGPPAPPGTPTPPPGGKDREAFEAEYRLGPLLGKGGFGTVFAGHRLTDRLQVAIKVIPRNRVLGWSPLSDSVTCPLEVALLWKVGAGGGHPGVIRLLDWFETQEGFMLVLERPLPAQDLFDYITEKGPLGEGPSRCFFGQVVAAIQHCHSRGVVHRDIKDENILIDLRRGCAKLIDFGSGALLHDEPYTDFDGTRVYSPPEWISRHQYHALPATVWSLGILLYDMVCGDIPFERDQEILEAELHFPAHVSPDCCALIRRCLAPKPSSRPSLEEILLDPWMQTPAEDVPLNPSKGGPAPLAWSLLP

[5] = biological target: Angiopoietin-1 receptor (Homo sapiens) (UniProt Q02763); assay: Inhibition of recombinant human GST-tagged TIE2 (817 to 1101 residues) expressed in baculovirus expression system using […] as substrate at 0.1 uM incubated for 60 mins by Z'-Lyte assay relative to control
Chain of Angiopoietin-1 receptor (Homo sapiens) (Q02763 whole entry, the tested form may be a part): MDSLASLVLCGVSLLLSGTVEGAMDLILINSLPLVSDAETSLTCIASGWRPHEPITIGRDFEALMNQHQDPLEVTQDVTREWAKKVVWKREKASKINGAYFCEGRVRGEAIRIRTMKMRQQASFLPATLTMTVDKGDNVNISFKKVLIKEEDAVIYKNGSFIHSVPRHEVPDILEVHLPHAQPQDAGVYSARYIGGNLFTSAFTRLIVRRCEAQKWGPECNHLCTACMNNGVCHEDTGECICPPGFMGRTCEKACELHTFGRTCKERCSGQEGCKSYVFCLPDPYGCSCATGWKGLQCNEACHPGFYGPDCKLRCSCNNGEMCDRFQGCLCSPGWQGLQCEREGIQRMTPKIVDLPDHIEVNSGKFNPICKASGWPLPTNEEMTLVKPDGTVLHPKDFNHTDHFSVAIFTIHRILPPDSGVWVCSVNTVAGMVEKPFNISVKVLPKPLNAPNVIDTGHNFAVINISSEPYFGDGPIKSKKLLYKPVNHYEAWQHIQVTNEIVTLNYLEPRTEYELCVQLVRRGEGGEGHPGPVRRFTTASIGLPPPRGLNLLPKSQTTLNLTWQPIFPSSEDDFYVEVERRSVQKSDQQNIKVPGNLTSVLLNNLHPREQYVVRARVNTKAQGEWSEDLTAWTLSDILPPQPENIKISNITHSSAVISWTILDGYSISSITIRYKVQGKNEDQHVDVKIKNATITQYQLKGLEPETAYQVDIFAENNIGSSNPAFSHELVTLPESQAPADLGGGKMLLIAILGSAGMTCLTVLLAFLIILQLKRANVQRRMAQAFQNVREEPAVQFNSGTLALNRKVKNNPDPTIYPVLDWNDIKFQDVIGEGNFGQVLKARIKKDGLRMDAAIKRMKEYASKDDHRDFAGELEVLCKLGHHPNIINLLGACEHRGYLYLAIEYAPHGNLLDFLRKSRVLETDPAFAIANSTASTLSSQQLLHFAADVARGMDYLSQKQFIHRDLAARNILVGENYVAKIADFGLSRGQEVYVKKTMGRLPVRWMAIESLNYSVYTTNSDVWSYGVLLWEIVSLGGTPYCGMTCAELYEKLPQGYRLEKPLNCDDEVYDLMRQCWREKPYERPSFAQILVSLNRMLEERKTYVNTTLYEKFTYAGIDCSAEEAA

[6] = biological target: Tyrosine-protein kinase receptor UFO (Homo sapiens) (UniProt P30530); assay: Inhibition of recombinant human GST-tagged full length AXL expressed in insect expression system using Tyr 06 as substrate at 0.1 uM incubated for 60 mins by Z'-Lyte assay relative to control
Chain of Tyrosine-protein kinase receptor UFO (Homo sapiens) (P30530 whole entry, the tested form may be a part): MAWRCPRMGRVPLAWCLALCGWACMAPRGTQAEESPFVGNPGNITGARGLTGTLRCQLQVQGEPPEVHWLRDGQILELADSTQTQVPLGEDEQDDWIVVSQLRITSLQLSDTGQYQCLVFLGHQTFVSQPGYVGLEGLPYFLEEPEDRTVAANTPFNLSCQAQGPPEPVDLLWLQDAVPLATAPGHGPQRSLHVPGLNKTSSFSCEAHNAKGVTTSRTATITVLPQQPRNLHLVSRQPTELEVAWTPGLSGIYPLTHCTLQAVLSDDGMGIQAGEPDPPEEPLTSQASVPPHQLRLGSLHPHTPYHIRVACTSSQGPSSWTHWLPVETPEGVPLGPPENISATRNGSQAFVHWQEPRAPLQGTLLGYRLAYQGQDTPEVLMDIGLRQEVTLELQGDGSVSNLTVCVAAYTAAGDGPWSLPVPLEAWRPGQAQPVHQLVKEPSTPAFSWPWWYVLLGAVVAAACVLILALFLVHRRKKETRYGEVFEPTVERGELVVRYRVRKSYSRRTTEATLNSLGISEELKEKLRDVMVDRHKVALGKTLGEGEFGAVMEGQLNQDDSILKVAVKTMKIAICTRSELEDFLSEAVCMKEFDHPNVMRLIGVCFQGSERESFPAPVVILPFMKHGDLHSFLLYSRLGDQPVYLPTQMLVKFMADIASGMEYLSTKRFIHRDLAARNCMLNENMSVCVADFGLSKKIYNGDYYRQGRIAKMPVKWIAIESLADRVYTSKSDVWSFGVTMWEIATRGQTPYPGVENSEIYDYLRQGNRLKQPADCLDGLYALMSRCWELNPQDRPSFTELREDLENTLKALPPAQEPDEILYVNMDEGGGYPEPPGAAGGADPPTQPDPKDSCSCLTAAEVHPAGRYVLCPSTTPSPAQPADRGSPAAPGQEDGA

[7] = biological target: Serine/threonine-protein kinase Sgk1 (Homo sapiens) (UniProt O00141); assay: Inhibition of recombinant human GST-tagged […] SGK1 (60 to 431 residues) expressed in baculovirus expression system using Ser/Thr 06 as substrate at 0.1 uM incubated for 60 mins by Z'-Lyte assay relative to control
Chain of Serine/threonine-protein kinase Sgk1 (Homo sapiens) (O00141 whole entry, the tested form may be a part): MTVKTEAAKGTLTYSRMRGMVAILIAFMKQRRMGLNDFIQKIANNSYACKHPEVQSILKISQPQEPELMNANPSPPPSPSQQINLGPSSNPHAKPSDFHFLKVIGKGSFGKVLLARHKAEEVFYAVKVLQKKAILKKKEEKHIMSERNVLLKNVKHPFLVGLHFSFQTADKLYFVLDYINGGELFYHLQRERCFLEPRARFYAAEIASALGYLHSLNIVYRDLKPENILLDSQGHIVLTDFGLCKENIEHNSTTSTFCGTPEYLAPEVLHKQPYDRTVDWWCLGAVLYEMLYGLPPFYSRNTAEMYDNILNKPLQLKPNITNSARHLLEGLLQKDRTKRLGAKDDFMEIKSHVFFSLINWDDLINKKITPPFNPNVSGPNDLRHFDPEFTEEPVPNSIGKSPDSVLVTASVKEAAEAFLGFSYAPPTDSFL

[8] = biological target: Inhibitor of nuclear factor kappa-B kinase subunit alpha (Homo sapiens) (UniProt O15111); assay: Inhibition of recombinant human His-tagged full length IKKalpha expressed in baculovirus expression system at 0.1 uM incubated for 60 mins by Adapta assay relative to control
Chain of Inhibitor of nuclear factor kappa-B kinase subunit alpha (Homo sapiens) (O15111 whole entry, the tested form may be a part): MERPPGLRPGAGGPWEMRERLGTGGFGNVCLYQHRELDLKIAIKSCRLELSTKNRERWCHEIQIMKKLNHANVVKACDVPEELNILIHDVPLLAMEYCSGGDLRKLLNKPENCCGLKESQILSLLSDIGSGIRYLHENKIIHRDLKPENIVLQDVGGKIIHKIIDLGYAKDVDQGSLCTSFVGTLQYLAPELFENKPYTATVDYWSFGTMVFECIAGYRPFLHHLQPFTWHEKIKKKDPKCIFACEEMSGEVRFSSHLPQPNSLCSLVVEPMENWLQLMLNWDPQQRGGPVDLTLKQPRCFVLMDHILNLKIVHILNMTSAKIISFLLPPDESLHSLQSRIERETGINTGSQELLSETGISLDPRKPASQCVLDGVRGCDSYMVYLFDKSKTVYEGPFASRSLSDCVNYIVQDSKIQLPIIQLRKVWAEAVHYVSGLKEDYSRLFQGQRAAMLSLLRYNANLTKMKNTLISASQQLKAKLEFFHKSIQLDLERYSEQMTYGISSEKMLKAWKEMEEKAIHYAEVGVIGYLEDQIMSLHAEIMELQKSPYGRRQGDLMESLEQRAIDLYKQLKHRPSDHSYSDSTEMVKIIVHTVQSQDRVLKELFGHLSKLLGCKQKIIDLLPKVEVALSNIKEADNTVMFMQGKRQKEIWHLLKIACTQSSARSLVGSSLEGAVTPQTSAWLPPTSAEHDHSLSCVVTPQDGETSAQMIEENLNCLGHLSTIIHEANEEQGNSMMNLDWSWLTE

[9] = biological target: Leucine-rich repeat serine/threonine-protein kinase 2 (Homo sapiens, UniProt Q5S007); assay: Inhibition of recombinant human GST-tagged LRRK2 (970 to 2527 residues) expressed in baculovirus expression system using LRRKtide as substrate incubated for 60 mins by Adapta assay

Compound	Ki [1]	inhibition [2]	Ki [3]	inhibition [4]	inhibition [5]	inhibition [6]	inhibition [7]	inhibition [8]	IC50 [9]
Cn1cc(NC(=O)c2cnn3cccnc23)c(-c2cc(Cl)ccc2OC(F)F)n1	210 pM	98%	88 pM	2%	3%	5%	7%	-3%	–
O=C(Nc1c[nH]nc1-c1cc(Cl)ccc1OC(F)F)c1cnn2cccnc12	210 pM	–	71 pM	18%	12%	–	–	–	18000 pM
O=C(Nc1c[nH]nc1-c1cc2ccccc2cc1OC(F)F)c1cnn2cccnc12	–	97%	–	-1%	–	0%	-4%	6%	180000 pM
